{"source": "patent US20050250819A1", "about": "(priority 2004, published 2005)"}
{"tested_on": "Type III-dependent secretion of SipB (SPI1 type III protein secretion system)", "assay": "Secondary assay: Type III-dependent protein secretion of the SipB polypeptide by S. enterica", "assay_type": "cell-based", "conditions": "Salmonella enterica, read-out: SipB IC50(μM)", "protocol": "Secondary assay: Type III-dependent protein secretion of the SipB polypeptide by S. enterica. The SipB protein of S. enterica is another effector of the SPI1 type III protein secretion system from S. enterica. In this cell-based procedure, the Type III-dependent secretion of SipB from the bacterial cytoplasm to the extracellular medium was measured through its reactivity with a cognate mouse monoclonal.\nSalmonella enterica cells growing either in the presence or in the absence of inhibitors are induced for the production of SipB. Following an established period of growth the cells are sedimented and the amount of SipB present in the supernatant is quantified with a scanning imager following application of immunoblot techniques. Detection may employ an anti-SipB mouse monoclonal antibody (e.g., obtained from Jorge Galan, SUNY at Stony Brook, N.Y.) followed by treatment with commercially available sheep anti-mouse polyclonal antibody conjugated with horseradish peroxidase. Thereafter the membrane is treated with a peroxidase chemiluminescent substrate and exposed to film for an appropriate exposure time. Inhibition may be measured relative to untreated controls.", "units": {"IC50": "µM"}}
{"smiles": "O=C(N[C@H](CO)CSCc1ccccc1)/C(=C\\c1ccc(-c2ccccc2)cc1)NC(=O)c1ccc(C(F)(F)F)cc1", "note": "[Compound 14]", "IC50": 77.3}
{"tested_on": "Type III protein secretion of the chimeric SopE‘-’Bla polypeptide (SPI1 type III protein secretion system)", "assay": "Primary assay: Type III protein secretion of the chimeric SopE'-'Bla polypeptide by Salmonella enterica", "assay_type": "cell-based", "conditions": "read-out: SopE IC50(μM)", "method_in_brief": "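Salmonella enterica grown under SPI1-inducing conditions expressed a SopE‘-’Bla fusion, with TEM-1 β-lactamase lacking its signal peptide, with or without test compounds. Nitrocefin added to the cultures was hydrolysed only by the secreted fusion, so the colorimetric signal reports type III secretion, and inhibitors lower it.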", "units": {"IC50": "µM"}}
{"smiles": "O=C(N[C@@H](Cc1ccc(Cl)cc1)C(=O)O)/C(=C\\c1cccc(C(F)(F)F)c1)NC(=O)c1ccc(Oc2ccccc2)cc1", "note": "[Compound 47, (S)-3-(4-Chlorophenyl)-2-[2-(4-phenoxybenzoylamino)-3-(3-trifluoromethyl-phenyl)acryloylamino]propionic acid]", "IC50": 12.4}
{"tested_on": "Type III-dependent secretion of ExoU by P. aeruginosa PA103", "assay": "Tertiary assay: Type III-dependent secretion of ExoU by P. aeruginosa PA103", "assay_type": "cell-based", "conditions": "Pseudomonas aeruginosa, ExoU secreted into extracellular medium", "text": "Tertiary assay: inhibition of Type III protein secretion of effectors from a Pseudomonas aeruginosa system. Type III protein secretion is used by P. aeruginosa to secrete several essential virulence determinants. One effector of the type III protein secretion system of P. aeruginosa PA103 is the virulence determinants ExoU.\nThe amount of Type III-dependent secretion of ExoU by P. aeruginosa PA103 can be determined in a cell-based assay by quantification of the 73.9 kDa ExoU protein secreted into the extracellular medium. Such quantitation can be achieved by growing strain PA103 in a deferrated medium in the presence of nitrilotriacetic acid (an inducer of Type III protein secretion in P. aeruginosa) and either in the presence or absence of putative inhibitors. After a prolonged growth period, the cells are sedimented and the supernatants concentrated by ammonium sulfate precipitation. The proteins in the resuspended pellets are separated by electrophoresis on SDS-polyacrylamide gels. After staining gels with Colloidal Blue™, the 73.9 kDa ExoU band is quantitated by scanning through an imager. The effects of inhibitors on the intensity of the ExoU band may be measured relative to that of untreated controls.", "units": {"IC50": "µM"}}
{"smiles": "O=C(N[C@@H](Cc1ccc(Cl)cc1)C(=O)O)/C(=C\\c1cccc(C(F)(F)F)c1)NC(=O)c1ccc(Oc2ccccc2)cc1", "note": "[Compound 47, (S)-3-(4-Chlorophenyl)-2-[2-(4-phenoxybenzoylamino)-3-(3-trifluoromethyl-phenyl)acryloylamino]propionic acid]", "IC50": 35.1}
{"smiles": "O=C(NC(COCc1ccccc1)C(=O)O)/C(=C\\c1ccc(Cl)cc1Cl)NC(=O)c1ccc(-c2ccccc2)cc1", "note": "(centres unmarked) [Compound 103]", "IC50": 18}
{"smiles": "O=C(N[C@@H](CSCc1ccccc1)C(=O)O)/C(=C\\c1ccc(Cl)c(Cl)c1)NC(=O)c1ccc(-c2ccccc2)cc1", "note": "[Compound 105]", "IC50": 33}
{"smiles": "O=C(NC(COCc1ccccc1)C(=O)O)/C(=C\\c1ccc(Cl)c(Cl)c1)NC(=O)c1ccc(-c2ccccc2)cc1", "note": "(centres unmarked) [Compound 106]", "IC50": 20}
{"smiles": "O=C(N[C@@H](CSCc1ccccc1)C(=O)O)/C(=C\\c1ccc(-c2ccccc2)cc1)NC(=O)c1ccc(C(F)(F)F)cc1", "note": "[Compound 121]", "IC50": 25}
{"smiles": "O=C(NC(CCSCc1ccccc1)C(=O)O)/C(=C\\c1ccc(-c2ccccc2)cc1)NC(=O)c1ccc(C(F)(F)F)cc1", "note": "(centres unmarked) [Compound 122]", "IC50": 25}
{"smiles": "O=C(NC(COCc1ccccc1)C(=O)O)/C(=C\\c1ccc(-c2ccccc2)cc1)NC(=O)c1ccc(C(F)(F)F)cc1", "note": "(centres unmarked) [Compound 133]", "IC50": 100}
{"smiles": "O=C(N[C@@H](CSCc1ccccc1)C(=O)O)/C(=C\\c1ccc(Cl)c(Cl)c1)NC(=O)c1ccc(C(F)(F)F)cc1", "note": "[Compound 140]", "IC50": 48}
{"smiles": "O=C(N[C@@H](CSCc1ccccc1)C(=O)O)/C(=C\\c1ccc(Cl)cc1Cl)NC(=O)c1ccc(C(F)(F)F)cc1", "note": "[Compound 154]", "IC50": 26.4}
